Here are results for 24 compounds from US12350272B2, “Pyridopyrimidinone derivatives for use as AXL inhibitors” (OSCOTEC INC., priority 2018, dated 2025).

Assay [1] concerns the target Truncated human Axl (Homo sapiens, UniProt P30530). The experiment in a line: Kinase inhibition assay (inhibition of enzymatic Axl kinase activity). It counts as biochemical. As to the method: Compounds of Formula (I) as obtained above were assayed to measure their capacity to inhibit Axl kinase. Axl belongs to the recently identified TYRO-3, Axl, MERTK (TAM) receptor tyrosine kinase (RTK) family. […] Upon GAS6 binding, Axl homodimerizes and subsequently induces several downstream signaling pathways involved in cell proliferation, migration, invasion, anti-apoptosis, angiogenesis, metastasis, and therapeutic resistance. Upregulation of Axl has been reported in a wide variety of cancer cell lines as well as in cancer specimens from patients with breast cancer, acute leukemia, colorectal cancer, lung cancer, melanoma, ovarian cancer, or prostate cancer, among others.
Compounds of Formula (I) as obtained above were initially diluted to […] in 100% DMSO (CALBIOCHEM™) for storage and made into kinase buffer solution to create a compound concentration ranging from 1 uM and 10 uM. Serial dilutions of the compounds were dispensed into a 96-well plate (GREINER BIOSCIENCES™) at 6 μL each. Truncated human Axl (CARNA BIOSCIENCES™) were diluted in kinase buffer and added to the compound solutions and pre-incubated for 30 minutes at room temperature. […] The reaction mixture was incubated for 1 hour. Following the incubation, the stop solution made with EDTA, water, and Lance detection buffer ([…]™) were added (12 μL each) to stop phosphorylation.

Assay [2] addresses JAK2 (Homo sapiens (Human), UniProt O60674). As to the kind of experiment: Biochemical inhibition of JAK2. Particulars: Table 2, range of IC50 value.
Assay [3] relates to Hs578T cells. As to the kind of experiment: Cell viability assay (ATPLite), Hs578T. The note with it: Homo sapiens, Hs-578T, 72 h, 72 hour incubation. It counts as cell-based, human. From the text:
(§1) Axl is a member of the TAM (TYRO3-Axl-MER) family of receptor tyrosine kinases, which, when activated, can increase tumor cell survival, proliferation, migration and invasion, angiogenesis, and tumor-host interactions. Upon GAS6 binding to Axl, Axl subsequently activates the signaling pathways downstream such as phosphoinositide 3-kinase (PI3K), RAt sarcoma (RAS), and extracellular signal regulated kinase (ERK).
(§2) This cell line was maintained with an Roswell Park Memorial Institute (RPMI) medium (HYCLONE™) containing 10% bovine calf serum (BCS; HYCLONE™) supplemented iron. The cells were seeded at 2×10^4 cells in 96-well culture plates, and serially diluted compounds were then added. After a 72 hour incubation period at 37° C., cell viability was measured using the ATPLite 1 step assay (PERKIN-ELMER™) that is based on the quantification of ATP from viable cells.

Assay [4] relates to MDA-MB-231 cells. The experiment in a line: Cell viability assay (ATPLite), MDA-MB-231. Particulars: Homo sapiens, MDA-MB-231, 72 h, 72 hour incubation. It counts as cell-based, human.
From the text: as §1, §2

Where [5] appears, read: Table 2, range of IC50 value, read-out: Axl.

Counter-ions that a name gives are not always drawn. Like-named read-outs stand apart in the source and are kept apart here.

Chain of Truncated human Axl (P30530 26-894 limits assumed): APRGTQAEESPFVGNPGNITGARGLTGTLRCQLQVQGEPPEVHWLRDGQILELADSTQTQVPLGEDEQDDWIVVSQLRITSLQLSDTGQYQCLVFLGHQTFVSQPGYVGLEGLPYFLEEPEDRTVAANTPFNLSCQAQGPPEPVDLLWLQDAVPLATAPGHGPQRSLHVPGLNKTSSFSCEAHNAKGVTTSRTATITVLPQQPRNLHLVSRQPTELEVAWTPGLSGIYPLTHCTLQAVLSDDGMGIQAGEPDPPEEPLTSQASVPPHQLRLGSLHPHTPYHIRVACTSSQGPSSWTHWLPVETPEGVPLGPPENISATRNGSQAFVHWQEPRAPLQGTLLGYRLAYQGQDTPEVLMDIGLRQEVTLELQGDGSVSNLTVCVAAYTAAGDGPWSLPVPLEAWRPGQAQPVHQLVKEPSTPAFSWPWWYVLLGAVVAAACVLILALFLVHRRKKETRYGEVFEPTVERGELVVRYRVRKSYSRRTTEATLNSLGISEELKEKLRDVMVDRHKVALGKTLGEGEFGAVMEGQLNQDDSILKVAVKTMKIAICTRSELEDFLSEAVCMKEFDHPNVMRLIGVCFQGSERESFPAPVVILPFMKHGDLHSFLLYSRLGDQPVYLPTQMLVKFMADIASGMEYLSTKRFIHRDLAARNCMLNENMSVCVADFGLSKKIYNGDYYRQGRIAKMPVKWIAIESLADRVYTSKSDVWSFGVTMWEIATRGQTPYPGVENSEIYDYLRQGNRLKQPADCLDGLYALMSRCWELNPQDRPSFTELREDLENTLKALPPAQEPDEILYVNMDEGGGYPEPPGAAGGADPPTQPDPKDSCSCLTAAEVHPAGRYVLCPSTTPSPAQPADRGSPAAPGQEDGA
Chain of JAK2 (O60674 whole entry, species assumed): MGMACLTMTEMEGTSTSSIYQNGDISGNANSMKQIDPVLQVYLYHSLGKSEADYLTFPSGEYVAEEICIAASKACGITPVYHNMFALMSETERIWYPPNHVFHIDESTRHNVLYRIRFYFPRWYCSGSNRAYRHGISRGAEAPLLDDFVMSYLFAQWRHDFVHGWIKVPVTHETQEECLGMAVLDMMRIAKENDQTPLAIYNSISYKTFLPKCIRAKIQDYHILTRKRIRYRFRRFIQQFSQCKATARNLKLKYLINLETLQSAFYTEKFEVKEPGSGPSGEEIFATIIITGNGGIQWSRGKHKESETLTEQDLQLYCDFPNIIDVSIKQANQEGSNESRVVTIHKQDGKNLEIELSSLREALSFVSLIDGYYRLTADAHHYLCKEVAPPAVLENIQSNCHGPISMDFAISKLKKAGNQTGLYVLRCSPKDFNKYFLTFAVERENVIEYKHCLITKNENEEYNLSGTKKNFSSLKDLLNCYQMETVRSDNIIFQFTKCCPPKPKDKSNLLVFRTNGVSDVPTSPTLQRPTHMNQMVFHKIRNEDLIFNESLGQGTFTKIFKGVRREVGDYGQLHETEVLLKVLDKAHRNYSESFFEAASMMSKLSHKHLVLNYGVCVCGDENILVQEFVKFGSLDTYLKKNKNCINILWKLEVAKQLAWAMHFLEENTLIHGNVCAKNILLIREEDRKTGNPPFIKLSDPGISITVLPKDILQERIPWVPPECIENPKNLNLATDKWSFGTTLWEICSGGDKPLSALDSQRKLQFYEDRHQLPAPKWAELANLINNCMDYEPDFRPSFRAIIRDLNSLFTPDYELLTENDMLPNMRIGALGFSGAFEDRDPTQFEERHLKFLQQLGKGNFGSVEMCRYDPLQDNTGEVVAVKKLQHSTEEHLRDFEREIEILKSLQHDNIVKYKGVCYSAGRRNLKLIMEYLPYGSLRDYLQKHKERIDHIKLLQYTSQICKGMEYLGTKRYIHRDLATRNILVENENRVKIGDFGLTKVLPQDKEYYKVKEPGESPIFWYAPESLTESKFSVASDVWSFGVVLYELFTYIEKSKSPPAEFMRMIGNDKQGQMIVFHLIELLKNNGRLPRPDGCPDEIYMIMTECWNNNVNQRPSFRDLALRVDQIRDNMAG

For the compound `CN1CCC(Nc2nc(Nc3ccc(OCc4ccccc4)cc3)c3c(=O)[nH]cc(Br)c3n2)CC1` [Compound 221, 4-((4-(benzyloxy)phenyl)amino)-8-bromo-2-((1-methylpiperidin-4-yl)amino)pyrido[4,3-d]pyrimidin-5(6H)-one], in assay [1] (Table 1, read-out: Axl (IC50)), the IC50 lay within 101 to 1000 nM.

In assay [2], `CN1CCC(Nc2nc(Nc3ccc(Oc4ccccc4)cc3)c3c(=O)[nH]cc(Br)c3n2)CC1` [Compound 222, 8-bromo-2-((1-methylpiperidin-4-yl)amino)-4-((4-phenoxyphenyl)amino)pyrido[4,3-d]pyrimidin-5(6H)-one] showed an IC50 of 101 to 1000 nM.

In the case of `CN1CCC(Nc2nc(Nc3ccc(OC4CCCC4)cc3)c3c(=O)[nH]cc(Br)c3n2)CC1` [Compound 223, 8-bromo-4-((4-(cyclopentyloxy)phenyl)amino)-2-((1-methylpiperidin-4-yl)amino)pyrido[4,3-d]pyrimidin-5(6H)-one], the IC50 in assay [1] (Table 1, read-out: Axl (IC50)) lay within 101 to 1000 nM; in assay [1] (setting [5]) it was 101 to 1000 nM; in assay [2], 101 to 1000 nM.

For `CN1CCC(Nc2nc(Nc3ccc(OCC4CCCCC4)cc3)c3c(=O)[nH]cc(Br)c3n2)CC1` [Compound 224, 8-bromo-4-((4-(cyclohexylmethoxy)phenyl)amino)-2-((1-methylpiperidin-4-yl)amino)pyrido[4,3-d]pyrimidin-5(6H)-one], in assay [1] (Table 1, read-out: Axl (IC50)), the IC50 lay in the range of 101 to 1000 nM.

Regarding `Cc1ccc(Oc2ccc(Nc3nc(NC4CCN(C)CC4)nc4c(Br)c[nH]c(=O)c34)cc2)cc1` [Compound 225, 8-bromo-2-((1-methylpiperidin-4-yl)amino)-4-((4-(p-tolyloxy)phenyl)amino)pyrido[4,3-d]pyrimidin-5(6H)-one], the IC50 in assay [1] (Table 1, read-out: Axl (IC50)) is 11 to 100 nM; in assay [1] (setting [5]) it was 11 to 100 nM; in assay [2] it was 1000 to 10000 nM.

On to `CN1CCC(Nc2nc(Nc3ccc(OCC4CCCC4)cc3)c3c(=O)[nH]cc(Br)c3n2)CC1` [Compound 227, 8-bromo-4-((4-(cyclopentylmethoxy)phenyl)amino)-2-((1-methylpiperidin-4-yl)amino)pyrido[4,3-d]pyrimidin-5(6H)-one], for which the IC50 in assay [1] (Table 1, read-out: Axl (IC50)) was 101 to 1000 nM.

On to `CN1CCC(Nc2nc(Nc3ccc(OC4CCCCC4)cc3)c3c(=O)[nH]cc(Br)c3n2)CC1` [Compound 228, 8-bromo-4-((4-(cyclohexyloxy)phenyl)amino)-2-((1-methylpiperidin-4-yl)amino)pyrido[4,3-d]pyrimidin-5(6H)-one], for which the IC50 in assay [1] (Table 1, read-out: Axl (IC50)) lay within 101 to 1000 nM; in assay [1] (setting [5]), 101 to 1000 nM; in assay [2], 101 to 1000 nM.

Turning to `CN1CCC(Nc2nc(Nc3ccc(OC4CCCCC4)cc3)c3c(=O)[nH]cc(Cl)c3n2)CC1` [Compound 229, 8-chloro-4-((4-(cyclohexyloxy)phenyl)amino)-2-((1-methylpiperidin-4-yl)amino)pyrido[4,3-d]pyrimidin-5(6H)-one], in assay [1] (Table 1, read-out: Axl (IC50)), the IC50 lay in the range of 101 to 1000 nM.

`CC(C)c1ccc(Oc2ccc(Nc3nc(NC4CCN(C)CC4)nc4c(Br)c[nH]c(=O)c34)cc2)cc1` [Compound 230, 8-bromo-4-((4-(4-isopropylphenoxy)phenyl)amino)-2-((1-methylpiperidin-4-yl)amino)pyrido[4,3-d]pyrimidin-5(6H)-one]: the IC50 in assay [1] (Table 1, read-out: Axl (IC50)) was in the range of 11 to 100 nM.

For the compound `Cc1ccc(Oc2ccc(Nc3nc(NC4CCN(C)CC4)nc4c(Br)c[nH]c(=O)c34)cc2)cc1` [Compound 231, 8-bromo-2-((1-methylpiperidin-4-yl)amino)-4-((4-(p-tolyloxy)phenyl)amino)pyrido[4,3-d]pyrimidin-5(6H)-one hydrochloride], the IC50 in assay [1] (Table 1, read-out: Axl (IC50)) is 11 to 100 nM.

For the compound `CN1CCC(Nc2nc(Nc3ccc(Oc4ccc(F)cc4)cc3)c3c(=O)[nH]cc(Br)c3n2)CC1` [Compound 232, 8-bromo-4-((4-(4-fluorophenoxy)phenyl)amino)-2-((1-methylpiperidin-4-yl)amino)pyrido[4,3-d]pyrimidin-5(6H)-one hydrochloride], the IC50 in assay [1] (Table 1, read-out: Axl (IC50)) is 11 to 100 nM.

For `CN1CCC(Nc2nc(Nc3ccc(OCc4ccccc4)cc3)c3c(=O)[nH]cc(Br)c3n2)CC1` [Compound 234, 4-((4-(benzyloxy)phenyl)amino)-8-bromo-2-((1-methylpiperidin-4-yl)amino)pyrido[4,3-d]pyrimidin-5(6H)-one hydrochloride], the IC50 in assay [1] (Table 1, read-out: Axl (IC50)) was in the range of 101 to 1000 nM.

Consider `CN1CCC(Nc2nc(Nc3ccc(OCC4CCCC4)cc3)c3c(=O)[nH]cc(Br)c3n2)CC1` [Compound 235, 8-bromo-4-((4-(cyclopentylmethoxy)phenyl)amino)-2-((1-methylpiperidin-4-yl)amino)pyrido[4,3-d]pyrimidin-5(6H)-one hydrochloride], for which the GI50 in assay [3] and in assay [4] was 1100 to 3000 nM each time. Also, in assay [1] (Table 1, read-out: Axl (IC50)), the IC50 fell in the range of 101 to 1000 nM.

As to `CC(C)c1ccc(Oc2ccc(Nc3nc(NC4CCN(C)CC4)nc4c(Br)c[nH]c(=O)c34)cc2)cc1` [Compound 236, 8-bromo-4-((4-(4-isopropylphenoxy)phenyl)amino)-2-((1-methylpiperidin-4-yl)amino)pyrido[4,3-d]pyrimidin-5(6H)-one hydrochloride], the IC50 in assay [1] (Table 1, read-out: Axl (IC50)) is 11 to 100 nM.

For the compound `Cc1ccccc1Oc1ccc(Nc2nc(NC3CCN(C)CC3)nc3c(Br)c[nH]c(=O)c23)cc1` [Compound 239, 8-bromo-2-((1-methylpiperidin-4-yl)amino)-4-((4-(o-tolyloxy)phenyl)amino)pyrido[4,3-d]pyrimidin-5(6H)-one hydrochloride], in assay [1] (Table 1, read-out: Axl (IC50)), the IC50 lay within 11 to 100 nM.

As for `CN1CCC(Nc2nc(Nc3ccc(Oc4ccc(Cl)cc4)cc3)c3c(=O)[nH]cc(Br)c3n2)CC1` [Compound 242, 8-bromo-4-((4-(4-chlorophenoxy)phenyl)amino)-2-((1-methylpiperidin-4-yl)amino)pyrido[4,3-d]pyrimidin-5(6H)-one hydrochloride], in assay [1] (Table 1, read-out: Axl (IC50)), the IC50 was 11 to 100 nM.

Turning to `CN1CCC(Nc2nc(Nc3ccc(Oc4cc(F)cc(F)c4)cc3)c3c(=O)[nH]cc(Br)c3n2)CC1` [Compound 243, 8-bromo-4-((4-(3,5-difluorophenoxy)phenyl)amino)-2-((1-methylpiperidin-4-yl)amino)pyrido[4,3-d]pyrimidin-5(6H)-one hydrochloride], the IC50 in assay [1] (Table 1, read-out: Axl (IC50)) lay within 11 to 100 nM.

For `Cc1cc(Nc2nc(NC3CCN(C)CC3)nc3c(Br)c[nH]c(=O)c23)ccc1Oc1cccc(F)c1` [Compound 244, 8-bromo-4-((4-(3-fluorophenoxy)-3-methylphenyl)amino)-2-((1-methylpiperidin-4-yl)amino)pyrido[4,3-d]pyrimidin-5(6H)-one hydrochloride], the IC50 in assay [1] (Table 1, read-out: Axl (IC50)) lay within 11 to 100 nM.

For the compound `CN1CCC(Nc2nc(Nc3ccc(Oc4ccccc4)c(F)c3)c3c(=O)[nH]cc(Br)c3n2)CC1` [Compound 245, 8-bromo-4-((3-fluoro-4-phenoxyphenyl)amino)-2-((1-methylpiperidin-4-yl)amino)pyrido[4,3-d]pyrimidin-5(6H)-one hydrochloride], the IC50 in assay [1] (Table 1, read-out: Axl (IC50)) lay in the range of 11 to 100 nM.

For the compound `Cc1cc(Nc2nc(NC3CCN(C)CC3)nc3c(Br)c[nH]c(=O)c23)ccc1Oc1ccccc1` [Compound 246, 8-bromo-4-((3-methyl-4-phenoxyphenyl)amino)-2-((1-methylpiperidin-4-yl)amino)pyrido[4,3-d]pyrimidin-5(6H)-one hydrochloride], in assay [1] (Table 1, read-out: Axl (IC50)), the IC50 fell in the range of 11 to 100 nM.

Regarding `CN1CCC(Nc2nc(Nc3ccc(Oc4cccc(F)c4)c(F)c3)c3c(=O)[nH]cc(Br)c3n2)CC1` [Compound 247, 8-bromo-4-((3-fluoro-4-(3-fluorophenoxy)phenyl)amino)-2-((1-methylpiperidin-4-yl)amino)pyrido[4,3-d]pyrimidin-5(6H)-one hydrochloride], the IC50 in assay [1] (Table 1, read-out: Axl (IC50)) was 11 to 100 nM.

Turning to `CC(C)N1CCC(Nc2nc(Nc3ccc(Oc4ccccc4)cc3)c3c(=O)[nH]cc(Br)c3n2)CC1` [Compound 248, 8-bromo-2-(1-isopropylpiperidin-4-ylamino)-4-(4-phenoxyphenylamino)pyrido[4,3-d]pyrimidin-5(6H)-one], the IC50 in assay [1] (Table 1, read-out: Axl (IC50)) is 11 to 100 nM.

For the compound `CCN1CCC(Nc2nc(Nc3ccc(Oc4ccccc4)cc3)c3c(=O)[nH]cc(Br)c3n2)CC1` [Compound 249, 8-bromo-2-(1-ethylpiperidin-4-ylamino)-4-(4-phenoxyphenylamino)pyrido[4,3-d]pyrimidin-5(6H)-one], the IC50 in assay [1] (Table 1, read-out: Axl (IC50)) lay within 11 to 100 nM.

As to `O=c1[nH]cc(Br)c2nc(NC3CCN(CC(F)(F)F)CC3)nc(Nc3ccc(Oc4ccccc4)cc3)c12` [Compound 250, 8-bromo-4-(4-phenoxyphenylamino)-2-(1-(2,2,2-trifluoroethyl)piperidin-4-ylamino)pyrido[4,3-d]pyrimidin-5(6H)-one], the IC50 in assay [1] (Table 1, read-out: Axl (IC50)) lay in the range of 101 to 1000 nM.
